Where two headings read alike, the source gives them in different places.
What was measured:
P. falciparum 3D7 [1] = tested on: P. falciparum 3D7; parameters: method as in ChEMBL-NTD; settings: ref ChEMBL-NTD, cited from earlier work
P. falciparum 3D7 [2] = assay: DAPI stain fluorescent high content imaging assay, P. falciparum 3D7 (confirmatory screen, Avery); settings: Plasmodium falciparum; for EC50: 3D7, read-out: EC50_nM; for inhibition of growth at 5 µM: 3D7, read-out: percent_inh @ 5 uM; for inhibition of growth at 2 µM: 3D7, read-out: percent_inh @ 2 uM
[3] = original screening data, source (GSK, GNF, StJude), several values separated by ';' in order of sources
[4] = values follow the order of the source (GNF; GSK; StJude)

| Structure (SMILES) | EC50 (P. falciparum 3D7 [2]) [nM] | inhibition of growth at 5 µM (P. falciparum 3D7 [2]) [%] | also measured |
| --- | --- | --- | --- |
| Cc1ccccc1OCCSc1nc2ccc(NC(=O)c3ccccc3)cc2s1 [MMV007577] | 1120 | 93 | EC50 (P. falciparum 3D7 [1]; source GNF (GNF-Pf ids)): 9760 nM |
| COc1ccc(C(=O)NC(c2ccc(Cl)cc2Cl)c2cc(Cl)c3cccnc3c2O)cc1 (stereo not shown) [MMV666054] | 513 | 96 | EC50 (P. falciparum 3D7 [1]; source GSK (TCMDC ids)): 499 nM |
| Cc1cccc(Nc2nc(N)c3ccccc3n2)c1 [MMV019110] | 400 | – | EC50 (P. falciparum 3D7 [1]; source GSK (TCMDC id)): 574 nM; inhibition of growth at 2 µM (P. falciparum 3D7 [2]): 97% |
| Cc1cc(Nc2ccc(C)c(Cl)c2)n2nc(C(F)(F)F)nc2n1 [MMV665874] | 6.71 | 98 | EC50 (P. falciparum 3D7 [1]; source GSK (TCMDC id)): 15.8 nM |
| O=C(Nc1ccccc1O)c1ccc(Oc2cccc(C(=O)Nc3ccccc3O)c2)cc1 [MMV665888] | – | 91 | EC50 (P. falciparum 3D7 [1]; source GSK): 799 nM |
| Oc1c2c(nc3cc(-c4ccccc4)nn13)CCCC2 [MMV008270] | – | 77 | EC50 (P. falciparum 3D7 [1]; [3]): 1930 nM |
| COc1cc(-c2nc(-c3ccccc3)c(-c3ccccc3)[nH]2)cc(OC)c1O [MMV020750] | 1180 | 97 | EC50 (P. falciparum 3D7 [1]; [4]): 774 nM |
| Cc1cc(C=C2SC(=Nc3ccccc3)N(C3CCCC3)C2=O)c(C)n1-c1ccc(Cl)cc1 [MMV666688] | 263 | 97 | EC50 (P. falciparum 3D7 [1]; source GSK (TCMDC id)): 876 nM |
| O=C(Nc1nc(-c2ccccn2)cs1)c1ccccc1Br [MMV665909] | 1360 | 97 | EC50 (P. falciparum 3D7 [1]; source StJude): 4530 nM |
| Cc1cc(NCCN2CCCCC2)c2ccc3ccccc3c2n1 [MMV006203] | 300 | 99 | EC50 (P. falciparum 3D7 [1]; source GNF (GNF-Pf id)): 44.1 nM |
| Clc1ccc2[nH]c3c(NCCCN4CCOCC4)ncnc3c2c1 [MMV006587] | 700 | – | EC50 (P. falciparum 3D7 [1]; [3]): 109 nM |
| COc1ccc(NC(=O)C2c3ccccc3C(=O)N(CC(C)C)C2c2cccs2)cc1 (stereo not shown) [MMV000662] | 36.7 | 100 | EC50 (P. falciparum 3D7 [1]; source StJude (SJ id)): 102 nM |
| COCCNC(=O)c1ccc(OC2CCN(Cc3ccc(F)c(F)c3)CC2)c(Cl)c1 [MMV666072] | – | 91 | EC50 (P. falciparum 3D7 [1]; source GSK): 1490 nM |
| CCCN(CCC)CC(O)COc1ccccc1C(=O)Nc1ccccc1 (stereo not shown) [MMV006455] | 196 | 98 | EC50 (P. falciparum 3D7 [1]; source GNF (GNF-Pf id)): 365 nM; EC50 (P. falciparum 3D7 [1]; source GSK (TCMDC id)): 799 nM |
| COc1ccc(CCn2c(=N)c(C(=O)NCc3cccnc3)cc3c(=O)n4cccc(C)c4nc32)cc1 [MMV667488] | 373 | – | EC50 (P. falciparum 3D7 [1]; [4]): 1400 nM |
| Oc1ccccc1CNCC12CC3CC(CC(C3)C1)C2 [MMV020788] | 22.6 | 96 | EC50 (P. falciparum 3D7 [1]; source GSK (TCMDC id)): 279 nM |
| COc1ccccc1N=C1C(=O)c2ccccc2C(O)=C1N1CCCCC1 [MMV085203] | 5.3 | 98 | EC50 (P. falciparum 3D7 [1]; source GNF (GNF-Pf id)): 28 nM |
| OC1=C2C(=Nc3ccccc3SC2c2ccc(Br)cc2)c2ccccc21 (stereo not shown) [MMV007127] | 567 | 97 | EC50 (P. falciparum 3D7 [1]; source GNF (GNF-Pf ids)): 337 nM |
| CCN(CC)CCNc1ncnc2c1[nH]c1ccc(Br)cc12 [MMV006545] | 707 | – | EC50 (P. falciparum 3D7 [1]; [3]): 288 nM |
| CC(C)(C)C(=O)Nc1ccc(C(=O)Nc2cccc(-c3nc4ccccc4[nH]3)c2)cc1 [MMV665879] | – | 91 | EC50 (P. falciparum 3D7 [1]; [3]): 282 nM |

| Structure (SMILES) | EC50 (P. falciparum 3D7 [2]) [nM] | inhibition of growth at 5 µM (P. falciparum 3D7 [2]) [%] | also measured |
| --- | --- | --- | --- |
| COc1ccc(-c2cn3c(C(=O)Nc4ccccc4Cl)c(-c4ccccc4)c4c3n2CCCC4)cc1 [MMV020403] | – | 80 | EC50 (P. falciparum 3D7 [1]; [4]): 792 nM |
| c1ccc(CNc2nc(Nc3ccccc3)nc3ccccc23)cc1 [MMV006169] | 776 | – | EC50 (P. falciparum 3D7 [1]; [4]): 158 nM; inhibition of growth at 2 µM (P. falciparum 3D7 [2]): 95% |
| Oc1ccc(Br)cc1CN1CCN(Cc2cccc(F)c2)CC1 [MMV000356] | 1030 | – | EC50 (P. falciparum 3D7 [1]; [3]): 1400 nM |
| CCOc1ccc(-n2cc(-c3ccccc3)c3c(SCc4cc(C)ccc4C)ncnc32)cc1 [MMV085471] | 1700 | 97 | EC50 (P. falciparum 3D7 [1]; source GNF (GNF-Pf ids)): 2010 nM |
| CCCc1c(C)nc2ccc(Br)cc2c1O [MMV666095] | 1190 | 64 | EC50 (P. falciparum 3D7 [1]; source GNF (GNF-Pf ids)): 1510 nM |
| Cc1ccc(-c2nc3ccccc3o2)cc1NCc1cc(Cc2ccccc2)ccc1O [MMV020912] | – | 64 | EC50 (P. falciparum 3D7 [1]; [4]): 1030 nM |
| CCn1c(CN2CCN(Cc3ccccc3)CC2)nc2cc(NC(=O)c3cccs3)ccc21 [MMV020439] | 512 | 97 | EC50 (P. falciparum 3D7 [1]; source GSK (TCMDC id)): 402 nM |
| FC(F)(F)c1cccc(Nc2nc(-c3ccccc3)nc3ncccc23)c1 [MMV665798] | – | 74 | EC50 (P. falciparum 3D7 [1]; source GSK): 802 nM |
| FC(F)(F)c1ccc(Nc2nnnc3ccccc23)cc1 [MMV665935] | – | 77 | EC50 (P. falciparum 3D7 [1]; source GNF): 7720 nM; EC50 (P. falciparum 3D7 [1]; source GSK): 692 nM |
| COc1ccc(C(=O)Nc2nonc2-c2ccc(OC)c(OC)c2)cc1Cl [MMV011567] | 516 | 92 | EC50 (P. falciparum 3D7 [1]; source GNF): 1780 nM; EC50 (P. falciparum 3D7 [1]; source GSK): 675 nM |
| CCOC(=O)c1cnc2c(CC)cccc2c1O [MMV498479] | – | 87 | EC50 (P. falciparum 3D7 [1]; source GNF (GNF-Pf ids)): 1660 nM |
| COc1ccc(-c2nonc2NC(=O)c2cccc(C)c2)cc1OC [MMV665890] | – | 95 | EC50 (P. falciparum 3D7 [1]; [3]): 806 nM |
| CC(NCc1ccccc1)c1cc(Cl)ccc1O (stereo not shown) [MMV665789] | 603 | 95 | EC50 (P. falciparum 3D7 [1]; source GNF): 592 nM |
| COc1ccc(CN2CCN(Cc3ccccc3)CC2)c(O)c1 [MMV665944] | 1080 | 96 | EC50 (P. falciparum 3D7 [1]; source StJude (SJ ids)): 1090 nM |
| CC(=O)NCCc1nc2ccccc2n1Cc1ccc(C(C)C)cc1 [MMV007617] | 1790 | 97 | EC50 (P. falciparum 3D7 [1]; source GNF): 764 nM |
| CCOC(=O)C1CCN(C(=O)CN2C(=O)c3ccccc3C2c2c[nH]c3ccccc23)CC1 (stereo not shown) [MMV011576] | 1180 | 98 | EC50 (P. falciparum 3D7 [1]; [3]): 519 nM |
| COc1ccc(C(C)=O)cc1N1C(=O)C2C(C1=O)C1(c3ccccc3)C(=O)C2(c2ccccc2)C(c2ccc(C)cc2)=C1c1ccc(C)cc1 (stereo not shown) [MMV007695] | 179 | 96 | EC50 (P. falciparum 3D7 [1]; source GNF (GNF-Pf id)): 2460 nM |
| Cc1c(C)n(Cc2ccc(F)cc2)c2ccc(C(=O)NCc3ccco3)cc12 [MMV008149] | – | 52 | EC50 (P. falciparum 3D7 [1]; source GNF): 78.2 nM |
| Cc1cccc(N2C(=O)C3C(C2=O)C2(c4ccccc4)C(=O)C3(c3ccccc3)C(c3ccc4c(c3)OCO4)=C2c2ccc3c(c2)OCO3)c1 (stereo not shown) [MMV007228] | 304 | 94 | EC50 (P. falciparum 3D7 [1]; [4]): 1070 nM |
| Nc1ccc(-c2nc3cc(Oc4ccc(Oc5ccc6[nH]c(-c7ccc(N)cc7)nc6c5)cc4)ccc3[nH]2)cc1 [MMV011895] | 842 | 97 | EC50 (P. falciparum 3D7 [1]; source GNF): 288 nM |

| Structure (SMILES) | EC50 (P. falciparum 3D7 [2]) [nM] | inhibition of growth at 5 µM (P. falciparum 3D7 [2]) [%] | also measured |
| --- | --- | --- | --- |
| O=C(NCc1ccco1)C1CCN(S(=O)(=O)c2ccc(Cl)cc2)CC1 [MMV006188] | 890 | 94 | EC50 (P. falciparum 3D7 [1]; source GNF): 514 nM |
| Nc1ccc(-c2nc3cc(Cc4ccc5[nH]c(-c6ccc(N)cc6)nc5c4)ccc3[nH]2)cc1 [MMV665943] | 1420 | 100 | EC50 (P. falciparum 3D7 [1]; source GNF (GNF-Pf ids)): 243 nM; EC50 (P. falciparum 3D7 [1]; source GSK (TCMDC ids)): 512 nM; EC50 (P. falciparum 3D7 [1]; source StJude (SJ ids)): 1080 nM |
| CCn1c(SCC(=O)Nc2cc(C(F)(F)F)ccc2Cl)nc2ccccc2c1=O [MMV666103] | 1000 | 91 | EC50 (P. falciparum 3D7 [1]; source GSK): 397 nM |
| Cc1cc(N2CCN(C3CCCC3)CC2)n2c(nc3ccccc32)c1C#N [MMV006706] | 683 | – | EC50 (P. falciparum 3D7 [1]; [3]): 743 nM |
| CCN(CC)c1cc(C)c2cc(NC(=O)c3cccc(OC)c3)ccc2n1 [MMV000498] | – | 97 | EC50 (P. falciparum 3D7 [1]; source StJude): 4770 nM |
| COc1ccc(N2CCN(C(CNC(=O)CC(C)(C)C)c3ccc4c(c3)OCO4)CC2)cc1 (stereo not shown) [MMV665908] | – | 95 | EC50 (P. falciparum 3D7 [1]; source StJude (SJ ids)): 4280 nM |
| Cc1ccc(CSCc2ccc(C(=O)NC3CC3)o2)cc1 [MMV007571] | 635 | 97 | EC50 (P. falciparum 3D7 [1]; source GNF): 418 nM |
| Cc1[nH]c(-c2ccc(F)cc2)cc1C(=O)NC1CCN(Cc2ccccc2)CC1 [MMV019738] | 771 | 99 | EC50 (P. falciparum 3D7 [1]; source GSK): 1130 nM |
| COc1cccc(C(=O)NC(c2ccc(C)cc2)c2cc(Cl)c3cccnc3c2O)c1 (stereo not shown) [MMV665969] | 393 | 97 | EC50 (P. falciparum 3D7 [1]; source StJude (SJ ids)): 15000 nM |
| CCOc1cccc2sc(N(Cc3cccnc3)C(=O)C3CCCCC3)nc12 [MMV001230] | – | 94 | EC50 (P. falciparum 3D7 [1]; source StJude): 3040 nM |
| Oc1c2c(nc3ccccc13)CCCC2 [MMV665843] | – | 82 | EC50 (P. falciparum 3D7 [1]; [3]): 628 nM |
| CCOc1ccc2nc(C)cc(Nc3ccc(Br)cc3)c2c1 [MMV006522] | 480 | – | EC50 (P. falciparum 3D7 [1]; [4]): 114 nM; inhibition of growth at 2 µM (P. falciparum 3D7 [2]): 96% |
| COCCNCC(O)Cn1c2ccc(Cl)cc2c2cc(Cl)ccc21 (stereo not shown) [MMV019017] | 1010 | – | EC50 (P. falciparum 3D7 [1]; [3]): 52 nM |
| O=C(Nc1ccc(N2CCN(Cc3ccccc3)CC2)cc1)c1cccs1 [MMV019670] | 1080 | 59 | EC50 (P. falciparum 3D7 [1]; [3]): 769 nM |
| Cc1ccnc(NC(c2cccc(OCc3ccccc3)c2)c2ccc3cccnc3c2O)c1 (stereo not shown) [MMV000720] | 1020 | 97 | EC50 (P. falciparum 3D7 [1]; source GSK (TCMDC ids)): 864 nM; EC50 (P. falciparum 3D7 [1]; source StJude (SJ ids)): 1810 nM |
| COc1ccc(C(=O)C(CCC(CNC(C)(C)C)C(=O)c2ccc(OC)cc2)CNC(C)(C)C)cc1 (stereo not shown) [MMV007591] | – | 85 | EC50 (P. falciparum 3D7 [1]; [4]): 1120 nM |
| CCOc1ccc2nc(C)cc(Nc3ccc(N(C)C)cc3)c2c1 [MMV007020] | 4000 | – | EC50 (P. falciparum 3D7 [1]; [4]): 344 nM; inhibition of growth at 2 µM (P. falciparum 3D7 [2]): 94% |
| CCOC(=O)C1(Cc2ccccc2)CCN(Cc2cccc(OC)c2O)CC1 [MMV666109] | – | 95 | EC50 (P. falciparum 3D7 [1]; source StJude (SJ ids)): 2290 nM |
